Measurements: patent publication US20220168392A1 (priority 2019, published 2022)
Where “and” joins values, the source holds several entries; their conditions need not be identical. Equal entries are not always repeated. Square brackets hold non-standard residues; d marks the D form. * marks the point of attachment. 2Nal = N[C@@H](Cc1ccc2ccccc2c1)C(=O)O; Propionyl = CCC(=O)*; Sar = CNCC(=O)O

What was measured:
[1] = tested on: CD2F1 male mice exposed to TBI; experiment: 30-day survival after total body irradiation (TBI) in CD2F1 mice; format: in vivo, mouse; details: for Survival Differential (Treatment-Vehicle) / Survival treatment: CD2F1 M; for Dose Reduction Factor: male CD2F1
[2] = tested on: CD2F1 mice exposed to TBI (7 Gy); experiment: Sternal bone marrow histopathology (cellularity, megakaryocytes) after 7 Gy TBI; format: in vivo, mouse; details: day 7 post-TBI 7 Gy; 24 h pre-TBI administration
Experimental: Sternal histopathology: Following blood collection, animals were euthanized, and the sterna were collected on 0 (2 h post-TBI), 1, 3, 7, 15 and 30 days post-TBI. The sterna were fixed in a 20:1 volume of fixative (10^0/% buffered formalin) to tissue for at least 24 h and up to 7 days. Fixed sterna were decalcified for 3 h in 12-18% sodium EDTA (pH 7.4-7.5), and specimens were dehydrated using graded ethanol concentrations and embedded in paraffin. Longitudinal 5 μm sections were stained with regular hematoxylin and eosin (H&E) stain. A board-certified veterinary pathologist conducted blinded histopathological evaluation of these samples. The bone marrow was evaluated in situ within sternebrae and graded for total cellularity and megakaryocyte numbers averaged per 10 high power fields at 40× magnification using a BX41 Olympus microscope (Olympus Corporation, Minneapolis, Minn.). […]
Bone marrow cellularity and architecture of CD2F1 mice treated 24 h pre-TBI with vehicle or RWJ-800088 were evaluated by the AFRRI pathologist (FIG. 8). Bone marrow cellularity was determined by evaluating the amount of adipose (fat) tissue versus hematopoietic cells (minus, mature red blood cells) on one (10×) high power field (HPF). […]
Samples were collected on different days post-TBI up to day 30. […] Megakaryocytes were evaluated by averaging the number of cells per 10 (40×) high power fields (HPFs). […]

[3] = 9.25 Gy, 0.3 mg/kg single dose, Post 4 hr
[4] = 9.25 Gy, 0.3 mg/kg single dose, Pre −24 hr
[5] = 9.3 Gy, 0.3 mg/kg single dose, Post 24 hr
[6] = 9.3 Gy, 1 mg/kg single dose, Post 24 hr
[7] = 9.35 Gy, 0.1 mg/kg single dose, Post 24 hr
[8] = 9.35 Gy, 0.3 mg/kg single dose, Post 24 hr, listed as TPOm, 0.3 mg/kg
[9] = 9.35 Gy, 0.3 mg/kg, 2 doses 12 hours apart, Post, first dose 24 hr
[10] = 9.35 Gy, 0.3 mg/kg, 3 doses 8 hours apart, Post, first dose 24 hr
[11] = 9.35 Gy, 1 mg/kg single dose, Post 24 hr
[12] = 9.35 Gy, 2 mg/kg single dose, Post 24 hr
[13] = 9.35 Gy, 3 mg/kg single dose, Post 24 hr
[14] = 9.75 Gy, 0.1 mg/kg single dose, Post 4 hr
[15] = 9.75 Gy, 0.1 mg/kg single dose, Pre −24 hr
[16] = 9.75 Gy, 0.3 mg/kg single dose, Post 4 hr
[17] = 9.75 Gy, 0.3 mg/kg single dose, Pre −2 hr
[18] = 9.75 Gy, 0.3 mg/kg single dose, Pre −12 hr
[19] = 9.75 Gy, 0.3 mg/kg single dose, Pre −24 hr, listed as TPOm, 0.3 mg/kg
[20] = 9.75 Gy, 1 mg/kg single dose, Post 4 hr, listed as TPOm, 1 mg/kg
[21] = 9.75 Gy, 1 mg/kg single dose, Post 8 hr
[22] = 9.75 Gy, 1 mg/kg single dose, Post 12 hr
[23] = 9.75 Gy, 1 mg/kg single dose, Pre −24 hr
[24] = 9.75 Gy, 2 mg/kg single dose, Pre −24 hr
[25] = 9.75 Gy, 3 mg/kg single dose, Post 4 hr
[26] = 9.75 Gy, 3 mg/kg single dose, Pre −24 hr
[27] = 10.5 Gy, 0.1 mg/kg single dose, Pre −24 hr
[28] = 10.5 Gy, 0.3 mg/kg single dose, Pre −24 hr
[29] = 10.5 Gy, 1 mg/kg single dose, Pre −24 hr
[30] = 10.5 Gy, 3 mg/kg single dose, Pre −24 hr, listed as TPOm, 3 mg/kg
[31] = 11 Gy, 1 mg/kg single dose, Pre −2 hr
[32] = 11 Gy, 1 mg/kg single dose, Pre −12 hr
[33] = 11 Gy, 1 mg/kg single dose, Pre −24 hr, listed as TPOm, 1 mg/kg
[34] = 11.5 Gy, 3 mg/kg single dose, Pre −24 hr
[35] = 11.75 Gy, 3 mg/kg single dose, Pre −24 hr
[36] = 12 Gy, 1 mg/kg single dose, Pre −24 hr
[37] = 12 Gy, 3 mg/kg single dose, Pre −24 hr
[38] = 12.5 Gy, 1 mg/kg single dose, Pre −24 hr
[39] = 12.5 Gy, 3 mg/kg single dose, Pre −24 hr
[40] = 13 Gy, 1 mg/kg single dose, Pre −24 hr
[41] = 13.5 Gy, 1 mg/kg single dose, Pre −24 hr
[42] = 14 Gy, 1 mg/kg single dose, Pre −24 hr

## methoxypolyethyleneglycol20000-propionyl-L-Isoleucyl-L-Glutamyl-Glycyl-L-Prolyl-L-Threonyl-L-Leucyl-L-Arginyl-L-Glutaminyl-L-2-Naphthylalanyl-L-Leucyl-L-Alanyl-L-Alanyl-L-Arginyl-Sarcosyl-Ne-(methoxypolyethyleneglycol20000-propionyl-L-Isoleucyl-L-Glutamyl-Glycyl-L-Prolyl-L-Threonyl-L-Leucyl-L-Arginyl-L-Glutaminyl-L-2-Naphthylalanyl-L-Leucyl-L-Alanyl-L-Alanyl-L-Arginyl-Sarcosyl-)-Lysinamide ({mPEG 20 kDa-Propionyl}-IEGPTLRQ[2Nal]LAAR[Sar]K-NH2; also: dimer: second identical mPEG-propionyl chain on Lys Nε of C-terminal lysinamide) [RWJ-800088]
[1]; CD2F1, 24 hours post-TBI (9.3 Gy), doses 0.1 to 3 mg/kg (FIG. 12A)
  dose dependence of survival: increase in survival from 0.1 to 1 mg/kg and then a slight reduction in the survival benefit at 2 and 3 mg/kg
[1]; [3]
  Survival Differential (Treatment-Vehicle): 53%
  Survival treatment: 88%
[1]; [4]
  Survival Differential (Treatment-Vehicle): 41%
  Survival treatment: 83%
[1]; [5]
  Survival Differential (Treatment-Vehicle): 42%
  Survival treatment: 71%
[1]; [6]
  Survival Differential (Treatment-Vehicle): 50%
  Survival treatment: 79%
[1]; [7]
  Survival Differential (Treatment-Vehicle): 25%
  Survival treatment: 58%
[1]; 9.35 Gy, 0.3 mg/kg single dose, Post 24 hr, 0.3 mg/kg
  Survival treatment: 71%
[1]; [8]
  Survival Differential (Treatment-Vehicle): 25% and 17%
  Survival treatment: 58% and 71%
[1]; [9]
  Survival Differential (Treatment-Vehicle): 21%
  Survival treatment: 54%
[1]; [10]
  Survival Differential (Treatment-Vehicle): 8%
  Survival treatment: 50%
[1]; [11]
  Survival Differential (Treatment-Vehicle): 29%
  Survival treatment: 63%
[1]; [12]
  Survival Differential (Treatment-Vehicle): 17%
  Survival treatment: 50%
[1]; [13]
  Survival Differential (Treatment-Vehicle): 13%
  Survival treatment: 46%
[1]; [14]
  Survival Differential (Treatment-Vehicle): 21%
  Survival treatment: 42%
[1]; [15]
  Survival Differential (Treatment-Vehicle): 92%
  Survival treatment: 92%
[1]; [16]
  Survival Differential (Treatment-Vehicle): 42%
  Survival treatment: 63%
[1]; [17]
  Survival Differential (Treatment-Vehicle): 58%
  Survival treatment: 92%
[1]; [18]
  Survival Differential (Treatment-Vehicle): 96%
  Survival treatment: 100%
[1]; [19]
  Survival Differential (Treatment-Vehicle): 92% and 96%
  Survival treatment: 92% and 100%
[1]; [20]
  Survival Differential (Treatment-Vehicle): 67% and 60%
  Survival treatment: 88% and 80%
[1]; [21]
  Survival Differential (Treatment-Vehicle): 80%
  Survival treatment: 90%
[1]; [22]
  Survival Differential (Treatment-Vehicle): 50%
  Survival treatment: 70%
[1]; [23]
  Survival Differential (Treatment-Vehicle): 92%
  Survival treatment: 92%
[1]; [24]
  Survival Differential (Treatment-Vehicle): 96%
  Survival treatment: 96%
[1]; [25]
  Survival Differential (Treatment-Vehicle): 33%
  Survival treatment: 54%
[1]; [26]
  Survival Differential (Treatment-Vehicle): 100%
  Survival treatment: 100%
[1]; [27]
  Survival Differential (Treatment-Vehicle): 90%
  Survival treatment: 90%
[1]; [28]
  Survival Differential (Treatment-Vehicle): 95%
  Survival treatment: 95%
[1]; [29]
  Survival Differential (Treatment-Vehicle): 100%
  Survival treatment: 100%
[1]; [30]
  Survival Differential (Treatment-Vehicle): 90% and 100%
  Survival treatment: 90% and 100%
[1]; 11 Gy, 0.1 mg/kg single dose, Pre −24 hr
  Survival Differential (Treatment-Vehicle): 54%
[1]; 11 Gy, 0.1 mg/kg single dose, Pre −24 hr, 0.1 mg/kg
  Survival treatment: 54%
[1]; 11 Gy, 0.1 mg/kg single dose, Pre −24 hr, listed as TPOm, 0.1 mg/kg
  Survival treatment: 54%
[1]; 11 Gy, 0.3 mg/kg single dose, Pre −24 hr
  Survival Differential (Treatment-Vehicle): 83%
[1]; 11 Gy, 0.3 mg/kg single dose, Pre −24 hr, 0.3 mg/kg
  Survival treatment: 83%
[1]; 11 Gy, 0.3 mg/kg single dose, Pre −24 hr, listed as TPOm, 0.3 mg/kg
  Survival treatment: 83%
[1]; [31]
  Survival Differential (Treatment-Vehicle): 17%
  Survival treatment: 17%
[1]; [32]
  Survival Differential (Treatment-Vehicle): 100%
  Survival treatment: 100%
[1]; 11 Gy, 1 mg/kg single dose, Pre −24 hr, 1 mg/kg
  Survival treatment: 96%
[1]; [33]
  Survival Differential (Treatment-Vehicle): 71% and 96% and 100%
  Survival treatment: 71% and 96% and 100%
[1]; 11 Gy, 3 mg/kg single dose, Pre −24 hr
  Survival Differential (Treatment-Vehicle): 100%
[1]; 11 Gy, 3 mg/kg single dose, Pre −24 hr, 3 mg/kg
  Survival treatment: 100%
[1]; 11 Gy, 3 mg/kg single dose, Pre −24 hr, listed as TPOm, 3 mg/kg
  Survival treatment: 100%
[1]; [34]
  Survival Differential (Treatment-Vehicle): 92%
  Survival treatment: 92%
[1]; [35]
  Survival Differential (Treatment-Vehicle): 75%
  Survival treatment: 75%
[1]; [36]
  Survival Differential (Treatment-Vehicle): 88%
  Survival treatment: 88%
[1]; [37]
  Survival Differential (Treatment-Vehicle): 83%
  Survival treatment: 83%
[1]; [38]
  Survival Differential (Treatment-Vehicle): 54%
  Survival treatment: 54%
[1]; [39]
  Survival Differential (Treatment-Vehicle): 46%
  Survival treatment: 46%
[1]; [40]
  Survival Differential (Treatment-Vehicle): 42%
  Survival treatment: 42%
[1]; [41]
  Survival Differential (Treatment-Vehicle): 13%
  Survival treatment: 13%
[1]; [42]
  Survival Differential (Treatment-Vehicle): 1%
  Survival treatment: 1%
[1]; CD2F1 male, 1 mg/kg administered 24 h prior to radiation exposure (FIG. 13)
  enhancement in survival efficacy: ~100%
[1]; CD2F1 male, 9.35 Gy, 0.3 mg/kg 24 h pre-TBI (FIG. 3A)
  survival: 83%
[1]; CD2F1 male, 9.35 Gy, 0.3 mg/kg/dose SC at 24 h+48 h+72 h post-TBI
  survival, 3-dose regimen: 50%
[1]; CD2F1 male, 9.35 Gy, 0.3 mg/kg/dose SC at 24 h+48 h post-TBI
  survival, 2-dose regimen: 54%
[1]; CD2F1 male, 9.75 Gy, RWJ-800088 treated groups 0.1-3 mg/kg 24 h pre-TBI (FIG. 3B)
  survival: 92-100%
[1]; CD2F1 male, 10.5 Gy, range of doses 0.1-3 mg/kg 24 h pre-TBI (FIG. 3C)
  percent survival: 90-100%
[1]; Mice, whole body irradiation, whole wrapped cell: Enhanced survival, mitigation against thrombocytopenia, anemia, reduced adhesion protein expression on endothelial cells
  Effects: Enhanced survival,
[1]; 1 mg/kg 24 h post-TBI (FIG. 14)
  Dose Reduction Factor: 1.05
[1]; 1 mg/kg 24 h pre-TBI (FIG. 15)
  Dose Reduction Factor: 1.38
[1]; post-TBI administration
  optimum single dose as mitigator of radiation induced mortality in mice: 0.3 to 1.0 mg/kg
[2]
  megakaryocytes counts in sternal bone marrow: significant recovery
